Test results taken from US20220380317A1, “COMPOUNDS HAVING ANTIMALARIAL ACTIVITY” (NANYANG TECHNOLOGICAL UNIVERSITY, priority 2019, published 2022).
Where two headings read alike, the source gives them in different places.

Experiments:
P. berghei [1] = assay: in vivo four-day suppression test; parameters: species or system Balb/c mice; details: for dose required to achieve >95% killing: once daily Days 1 to 4, parasitemia measured on Day 5
Description: Four-week-old Balb/c mice were challenged with […] P. berghei parasites intravenously on Day 0. […] Parasitemia was measured on Day 5, and the following formula was used to measure in vivo activity;

P. falciparum = assay: in vitro P. falciparum growth inhibition / dose response assay (Hoechst 33342 FACS read out); assay type: cell-based, Plasmodium falciparum; details: for IC50: in vitro, FIG. 7B, read-out: affinity (IC50 values, in vitro anti-parasitic activity)
Description: For the in vitro P. falciparum culture, P. falciparum 3D7, Dd2, K1, T994, W2, and W2mef cell lines were obtained from Malaria Research and Reference Reagent Resource Center (MR4), BEI Resources. Artemisinin-resistant and -sensitive parasite field isolates from Ratanakiri, Cambodia were obtained by request from the Tracking Resistance to Artemisinin Collaboration (TRAC). In vitro parasite culture was performed as described by Maier and Rug (Methods Mol Bio 2013; 923:3-15). Briefly, cultures were maintained with RPMI medium supplemented with Albumax II; […] RPMI-1640 (Gibco, Life Technologies), 2.5 g/L Albumax II (Gibco, Life Technologies), 2.3 g/L Sodium Bicarbonate (Sigma-Aldrich), 50 mg/L Hypoxanthine (Sigma-Aldrich), 10 mg/L Gentamicin Sulphate (Gibco, Life Technologies), in 2-3% haematocrit human RBCs collected via patient donation at National University Hospital, Singapore. Cultures were maintained with a special mixed gas of 3% O2, 5% CO2, balanced with N2 (SOXAL, Air Liquide, Singapore). For cultures grown in plate format, plates were kept in a sealed bag filled with mixed gas. Parasitemia and parasite stages were checked by microscopy of blood smears fixed in Methanol (Merck), stained in Giemsa (Sigma-Aldrich) in 1× Tris-Base, Acetic Acid, EDTA (TAE) buffer (analytical grade, Fischer US).
Synchronization of ring stage parasites (0-20 hour IDC) was done by incubating packed RBC culture with 5% (w/v) D-Sorbitol (Sigma-Aldrich) at 37° C. for 20 minutes. Cultures were washed with incomplete RPMI (iRPMI), 2,200 rpm, 3 minutes, brake 1 to remove sorbitol and cell debris. Late stage parasites (30-48 hour IDC) were isolated using a 68% Percoll (MP Biomedicals) gradient prepared with 1× Phosphate Buffer Saline (PBS) and iRPMI. Packed parasite cultures were diluted with iRPMI 1:5, then layer carefully atop of the 68% Percoll gradient in a 15 mL Falcon tube. Tubes were spun at 2,200 rpm for 20 minutes, brake 0. […]
In a mid-throughput compound library screen, compounds were screened for antiparasitic activity by growth rate over a duration of 60 hrs (slightly over one IDC). ˜1% parasitemia of 0-3hpi ring stage culture in 2% haematocrit were treated with 10 μM of library compound (0.1% final DMSO concentration), and seeded into 96well flat bottom plates. […] After 60 hr of treatment (to allow ring stages to develop a more defined morphology), taken for Fluorescent-activated Cell Sorting (FACS) read out.
Assay read out was done by staining with Hoechst 33342 (Excitation 350 nm, Emission 461 nm; Molecular Probes, Life Technologies), a cell permeable DNA staining dye. […] Cells were read via a High Throughput Sampler (HTS)-coupled FACS machine (BD Biosciences) in the UV laser excitation channel (Excitation 355 nm). […]

[2] = system: lung, kidney, and liver epithelial cells; assay: toxicity in epithelial cells; assay type: cell-based; details: at 1000-folds in excess of the therapeutic dose
P. berghei [3] = assay: in vivo growth suppression test in P. berghei BALB/c mice model; details: 30 mg/kg intraperitoneally once daily for four days
Description: In a next step, the compound's in vitro activity was validated in vivo in a P. berghei BALB/c mice model. A growth suppression test was done by intraperitoneally infecting 4-week old Balb/c mice with GFP-expressing parasites, and allowing the parasitemia to rise to 3-4%. Subsequently, different doses of the compound were administered intraperitoneally once daily over four days.
Tail snips were done once daily to obtain blood samples for the measurement of parasitemia by FACS.

[4] = molecular target: T1, Falcilysin (FLN, PlasmoDB geneID: PF3D7_1360800) (Plasmodium falciparum, UniProt Q76NL8); assay: cell-free enzymatic inhibition assay with recombinant FLN and fluorescent-quencher peptide substrate; assay type: biochemical; details: 1 mM, fluorescence at 490 nm over 7 min
T1 construct: gift from Zbynek Bozdech, School of Biological Sciences, NTU
T1 sequence (Q76NL8 whole entry): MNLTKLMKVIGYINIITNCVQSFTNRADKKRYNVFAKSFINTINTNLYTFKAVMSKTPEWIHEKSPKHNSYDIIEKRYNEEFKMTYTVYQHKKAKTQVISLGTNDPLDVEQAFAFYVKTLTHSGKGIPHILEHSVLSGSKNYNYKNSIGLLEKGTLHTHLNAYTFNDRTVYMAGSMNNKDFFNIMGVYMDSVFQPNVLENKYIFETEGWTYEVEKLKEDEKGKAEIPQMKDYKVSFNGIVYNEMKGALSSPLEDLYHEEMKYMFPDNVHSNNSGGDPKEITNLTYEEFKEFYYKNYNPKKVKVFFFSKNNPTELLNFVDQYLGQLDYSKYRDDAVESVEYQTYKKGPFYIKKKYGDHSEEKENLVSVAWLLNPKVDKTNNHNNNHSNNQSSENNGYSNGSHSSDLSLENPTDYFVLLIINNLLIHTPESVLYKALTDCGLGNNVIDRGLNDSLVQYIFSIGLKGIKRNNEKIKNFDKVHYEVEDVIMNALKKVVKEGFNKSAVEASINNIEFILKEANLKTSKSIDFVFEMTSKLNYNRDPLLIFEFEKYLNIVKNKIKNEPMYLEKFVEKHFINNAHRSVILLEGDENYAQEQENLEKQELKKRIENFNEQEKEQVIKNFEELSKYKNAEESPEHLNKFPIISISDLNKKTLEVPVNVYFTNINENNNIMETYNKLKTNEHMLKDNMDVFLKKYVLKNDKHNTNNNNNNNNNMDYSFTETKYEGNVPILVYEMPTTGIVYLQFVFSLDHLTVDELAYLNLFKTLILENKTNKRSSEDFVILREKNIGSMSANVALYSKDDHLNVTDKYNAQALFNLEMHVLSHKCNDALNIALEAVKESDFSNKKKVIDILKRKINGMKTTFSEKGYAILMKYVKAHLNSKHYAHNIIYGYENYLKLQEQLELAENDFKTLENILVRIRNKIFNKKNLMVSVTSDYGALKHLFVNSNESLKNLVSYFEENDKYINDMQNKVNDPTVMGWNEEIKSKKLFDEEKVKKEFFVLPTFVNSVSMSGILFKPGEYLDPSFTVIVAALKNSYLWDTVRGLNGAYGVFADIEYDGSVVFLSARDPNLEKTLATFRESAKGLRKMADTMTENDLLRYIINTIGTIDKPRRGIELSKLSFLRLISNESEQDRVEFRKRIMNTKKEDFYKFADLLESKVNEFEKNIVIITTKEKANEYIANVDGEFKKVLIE
Description: In order to validate the results obtained from the CETSA screen, a cell-free enzymatic inhibition assay using recombinant-FLN and a fluorescent-quencher tagged 10-peptide substrate of FLN was employed. Recombinant FLN and the Dabcyl-[…] (SEQ ID NO:3)-Edans fluorescent-quencher peptides were a gift from Zbynek Bozdech of School of Biological Sciences, NTU. Briefly, recombinant FLN at a final concentration of 0.3 μg/ml in assay buffer (50 mM Bis-tris, pH 7.2) was prepared. […] Just prior to the read out, recombinant FLN in assay buffer was added. VO was determined by monitoring fluorescence (Aex=340 nm, Aem=490) over 7 min on a Tecan Infinite M200 Pro plate reader. Assays were done with two technical replicates each. Data of three biological replicates were averaged and plot on Microsoft excel to compare the slope of the fluorescence signal.

## 1-({3-[(4,5-Diphenyl-1-imidazolinyl)methyl]-5-methoxyphenyl}methyl)-4,5-diphenylimidazoline [SAR 13]
P. berghei [1]; 20 mg/kg
  in vivo activity in 4-day suppressive test: highest activity
P. berghei [1]
  dose required to achieve >95% killing: 20 mg/kg
P. falciparum
  in vitro potency compared with A1: more potent

## 1-({6-[(4,5-Diphenyl-1-imidazolinyl)methyl]-2-pyridyl}methyl)-4,5-diphenylimidazoline [SAR 14]
P. berghei [1]
  dose required to achieve >95% killing: 30 mg/kg
P. falciparum
  in vitro potency compared with A1: more potent

## C1=NC(c2ccccc2)C(c2ccccc2)N1Cc1cccc(CN2C=NC(c3ccccc3)C2c2ccccc2)c1 (centres unmarked) [A1, 1-({m-[(4,5-Diphenyl-1-imidazolinyl)methyl]phenyl}methyl)-4,5-diphenylimidazoline]
P. berghei [1]
  dose required to achieve >95% killing: 30 mg/kg
[2]
  toxicity: Toxicity was not observed
P. falciparum; Plasmodium falciparum
  IC50: 120 nM

## C[C@@H]1CC[C@H]2[C@@H](C)C(=O)O[C@@H]3O[C@@]4(C)CC[C@@H]1[C@]32OO4 [artemisinin]
P. berghei [3]
  reduction of parasitemia: unable to further reduce parasitemia beyond day 3

## C[C@@H]1C[C@@H]([C@H](O)CC2CC(=O)NC(=O)C2)C(=O)[C@@H](C)C1 [cyclohexamine]
[4]
  proteolytic activity of FLN: No inhibition of proteolytic activity

## C1=N[C@@H](c2ccccc2)[C@H](c2ccccc2)N1Cc1cccc(CN2C=N[C@@H](c3ccccc3)[C@@H]2c2ccccc2)c1 [imidazole variant, (4S,5S)-1-[(m-{[(4S,5S)-4,5-Diphenyl-1-imidazolyl]methyl}phenyl)methyl]-4,5-diphenylimidazole]
P. falciparum
  IC50: 4690 nM
